From patent US20130203659A1 (priority 2006, published 2013)
Where two headings read alike, the source gives them in different places. Non-standard residues stand in square brackets, D forms with d. Primed or numbered codes have the meaning given here. No end group written: not given here. Aib′ = alpha aminobutyric acid (source's wording); 20k mPEG = methoxy-polyethylene glycol, 20 kDa; 20k PEG = polyethylene glycol, 20 kDa

Legend:
human GLP-1 receptor [1] = molecular target: T1, human GLP-1 receptor (Homo sapiens, UniProt P43220); assay: GLP-1R reporter assay (cAMP-regulated luciferase, CHOK1 cells), human receptor; type: cell-based; conditions: luciferase reporter, 6 hours exposure; read-out: EC50 human
T1 construct: expressed in transfected cells; host or cells: CHOK1 cells with a cAMP-regulated luciferase reporter construct
T1 sequence (P43220 24-463): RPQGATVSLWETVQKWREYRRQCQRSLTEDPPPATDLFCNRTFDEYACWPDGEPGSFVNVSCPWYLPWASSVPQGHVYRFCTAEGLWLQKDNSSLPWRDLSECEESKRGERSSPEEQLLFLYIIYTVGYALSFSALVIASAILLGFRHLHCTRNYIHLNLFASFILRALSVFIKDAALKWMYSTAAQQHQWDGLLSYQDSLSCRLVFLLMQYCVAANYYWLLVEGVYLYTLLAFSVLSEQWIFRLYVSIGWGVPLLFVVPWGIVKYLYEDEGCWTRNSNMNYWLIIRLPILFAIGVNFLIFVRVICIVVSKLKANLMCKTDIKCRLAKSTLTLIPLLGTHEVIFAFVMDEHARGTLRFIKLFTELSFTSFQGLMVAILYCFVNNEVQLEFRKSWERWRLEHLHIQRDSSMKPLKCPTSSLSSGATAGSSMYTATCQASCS
Experimental: (§1) A. GLP-1R Reporter Assay:
(§2) Increased cAMP levels were measured through enhanced expression of a luciferase reporter gene. […] The evening prior to assay, the cells were washed, the medium replaced with serum-free medium containing 0.5% protease-free bovine serum albumin (BSA), and then cultured overnight. […] Cell lysates were assayed for luciferase activity using the Luciferase Assay System (Promega Corporation, Madison, Wis.). Luciferase activity was measured using a Luminoskan Ascent (Thermo Electron Corporation, Marietta, Ohio). Nonlinear regression analyses of resultant compound concentration curves were performed using GraphPad Prism (GraphPad Software, Inc., San Diego, Calif.).

mouse GLP-1 receptor = molecular target: T2, mouse GLP-1 receptor (Mus musculus, UniProt O35659); assay: GLP-1R reporter assay (cAMP-regulated luciferase, CHOK1 cells), mouse receptor; type: cell-based; conditions: 6 hours exposure
T2 construct: expressed in transfected cells; host or cells: CHOK1 cells with a cAMP-regulated luciferase reporter construct
T2 sequence (O35659 22-463): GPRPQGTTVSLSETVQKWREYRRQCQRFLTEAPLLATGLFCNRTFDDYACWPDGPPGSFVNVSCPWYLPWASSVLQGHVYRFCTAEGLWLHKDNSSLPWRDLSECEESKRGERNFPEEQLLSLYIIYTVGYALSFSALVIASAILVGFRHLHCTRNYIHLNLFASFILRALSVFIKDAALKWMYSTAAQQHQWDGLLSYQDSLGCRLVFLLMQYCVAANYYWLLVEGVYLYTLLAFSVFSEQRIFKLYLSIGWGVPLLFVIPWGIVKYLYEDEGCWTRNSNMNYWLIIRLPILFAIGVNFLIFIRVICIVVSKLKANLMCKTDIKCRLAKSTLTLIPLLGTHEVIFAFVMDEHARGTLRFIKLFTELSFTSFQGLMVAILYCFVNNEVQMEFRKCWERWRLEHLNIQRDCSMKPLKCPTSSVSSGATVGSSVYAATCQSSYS
Experimental: as §1, §2

human GLP-1 receptor [2] = molecular target: T1, human GLP-1 receptor; assay: In vitro GLP-1 receptor binding (125I-GLP-1 ligand binding assay), human receptor
Experimental: Cells were sedimented at 1500 rpm for 10 minutes. The resulting pellets were homogenized in 15 mls of ice cold sucrose buffer (25 mM Tris-HCl, 0.32 M Sucrose, 0.25 g/L sodium azide, pH 7.4) with a motorized, glass fitted, Teflon homogenizer. The homogenate was centrifuged at 48,000×g at 4° C. for 10 minutes, resuspended in 25 ml assay buffer (50 mM Tris-HCl, 5 mM MgCl2, 10 mg/ml protease-free BSA, 0.1 mg/ml STI, and 0.1 mg/ml Pefabloc, pH 7.4) with a Tissue-Tearor (Biospec Products), then centrifuged again at 48,000×g for 10 minutes. The pellets were homogenized for a third time in 15 ml assay buffer using the Tissue-Tearor and again centrifuged at 48,000×g for 10 minutes. The resulting pellet was resuspended in assay buffer at a wet weight concentration of 4 mg/ml.
Binding assays were performed in 96-well U-bottom plates. […] Bound radioactivity was determined using a TopCount microplate scintillation and luminescence counter (Packard Instrument Company, PerkinElmer, Shelton, Conn.). Nonlinear regression analyses of resulting concentration curves were performed using GraphPad Prism (GraphPad Software, Inc., San Diego, Calif.).

[3] = tested on: db/db diabetic mouse model; assay: Fed blood glucose in db/db diabetic mice; type: in vivo; conditions: for decrease of blood glucose levels over time (FIG. 13): 10 ug injected into each mouse
Experimental: The db/db mice are commercially available from The Jackson Laboratory JAX® GEMM® Strain—Spontaneous Mutation Congenic Mice, and are homozygous for the diabetes spontaneous mutation (Lepr^db). These mice become identifiably obese around 3 to 4 weeks of age. The criterion for selection for each mouse to enter the study was blood glucose of at least 300 mg/dL. Db/db mice at 8.5 weeks of age (for a chronic 1-2 wk study) to about 10-11 weeks of age (for an acute 1-3 day study) were injected once with each tested compound (acute experiment) or multiple times (chronic experiment). […] The mice were then placed in a fresh cage without any chow, so as to limit any variability in blood glucose levels associated with eating behaviors. Time points of 1 hr, 4 hr, 6 hr, and 24 hr were normally taken. When at the 24 hour time point blood glucose values were below where they started, further time points at every 24 hrs were taken until blood glucose returned to the baseline levels. Normal chow was given back after the 6 hr time point.
Tachyphylaxis was determined by multiple injections. A second injection of the compound was administered after the blood glucose levels sufficiently returned to starting baseline levels. At this point, it was evident whether the compound had the same effect/efficacy, or if there was any noticeable tachyphylaxis.

[4] = tested on: C57B16 (normal lean) mice; assay: Blood glucose and intraperitoneal glucose tolerance test in C57B16 (normal lean) mice; type: in vivo, mouse
Experimental: C57B16 (normal lean) mice were used at 10 to 12 weeks of age. These mice are commercially available through any vendor, such as Jackson Laboratories or Charles River, and are considered to be normal. The term “lean” is used to contrast these mice to obese db/db mice. C57B16 mice were randomized on body weight. […] After 4-5 hrs, an intraperitoneal glucose tolerance test (glucose tolerance test measures the body's ability to metabolize glucose) was performed using 2 g/kg of glucose dose. Blood glucose levels were measured 30 min and 90 minutes after the glucose load was administered and 24 hours or until blood glucose levels were back to the original values.

| Molecule | EC50 (human GLP-1 receptor [1]) | EC50 (mouse GLP-1 receptor) | IC50 (human GLP-1 receptor [2]) | further results |
| --- | --- | --- | --- | --- |
| CC[C@H](C)[C@H](NC(=O)[C@H](Cc1ccccc1)NC(=O)[C@H](CCC(=O)O)NC(=O)[C@H](CCCCN)NC(=O)[C@H](C)NC(=O)[C@H](C)NC(=O)[C@H](CCC(N)=O)NC(=O)CNC(=O)[C@H](CCC(=O)O)NC(=O)[C@H](CC(C)C)NC(=O)[C@H](Cc1ccc(O)cc1)NC(=O)[C@H](CO)NC(=O)[C@H](CO)NC(=O)[C@@H](NC(=O)[C@H](CC(=O)O)NC(=O)[C@H](CO)NC(=O)[C@@H](NC(=O)[C@H](Cc1ccccc1)NC(=O)[C@@H](NC(=O)CNC(=O)[C@H](CCC(=O)O)NC(=O)[C@H](C)NC(=O)[C@H](Cc1c[nH]cn1)NC(=O)[C@@H](N)[C@@H](C)O)[C@@H](C)O)[C@@H](C)O)C(C)C)C(=O)N[C@@H](C)C(=O)N[C@@H](Cc1c[nH]c2ccccc12)C(=O)N[C@@H](CC(C)C)C(=O)N[C@H](C(=O)N[C@@H](CCCCN)C(=O)NCC(=O)N[C@@H](CCCNC(=N)N)C(=O)O)C(C)C [T-GLP-1, T HAEGTFTSDVSSYLEGQAAKEFIAWLVKGR] | 0.3 nM | 2 nM | 53 nM |  |
| cgGLP-18: SEQ ID NO: 12 + 20k PEG (HXEGTFTSDVSSYLEGQAAKEFIAWLVKGRGCSGG; 20k PEG) |  |  |  | ability to lower blood glucose over a 72 hour time span (FIG. 12) ([3]; relative to control): lowered blood glucose relative to control |
| cgGLP-20: SEQ ID NO: 25 + 20 k mPEG (H[Aib′]EGTFTSDVSSYLE[Aib′]QAAKEFIAWLVKGRGC(20k mPEG)SG; not fully specified) |  |  |  | decrease of blood glucose levels over time (FIG. 13) [3]: significant decrease in blood glucose levels over a 48 hour time period |
| cgGLP-23: SEQ ID NO: 17 + 20 k PEG (HGEGTFTSDVSSYLE[Aib′]QAAKEFIAWLVKGRGC(20k PEG)-NH2; not fully specified; printed as HGEGT FTSDV SSYLE ZQAAK EFIAW LVKGR GC-amide; also: Aib defined in source as alpha aminobutyric acid) |  |  |  | decrease of blood glucose levels over time (FIG. 13) [3]: significant decrease in blood glucose levels over a 48 hour time period |
| mgGLP32: SEQ ID NO: 18 + 20 k PEG (HGEGTFTSDVSSYLE[Aib′]QAAKEFIAWLVKGRGC(20k PEG)A-NH2; not fully specified) |  |  |  | tachyphylaxis after the 4th dose (FIG. 19) ([4]; 4-day multiple dose experiment): No tachyphylaxyis was observed after the 4th dose; blood glucose after injection, before the GTT (FIG. 16) ([4]; C57B16 mice, first 52 hours after injection): decreased blood glucose to the same extent during the first 52 hours; blood glucose during the 4 hour fast (FIG. 19) ([4]; multiple dose experiment): blood glucose was decreased during the 4 hour fast; blood glucose spike during first and second GTT (FIG. 19) ([4]; multiple dose experiment, GTT after first and 4th injection): no blood glucose spike was seen during the first and second GTT; lowering of blood glucose levels (FIG. 14) ([3]; 10 ug per mouse): lowered blood glucose levels; time needed for blood glucose levels to return to normal levels ([3]; 10 ug/mouse): 72 h; lowering of blood glucose at different doses (FIG. 15) ([3]; 5 and 10 μg/mouse): lowered blood glucose levels for 24 hours in a dose dependent fashion; tachyphylaxis, multiple dose experiment ([3]; second bolus the next day): The same result was observed |

Now from value to molecule, other results behind:

| EC50 (human GLP-1 receptor [1]) | EC50 (mouse GLP-1 receptor) | IC50 (human GLP-1 receptor [2]) | Molecule | further results |
| --- | --- | --- | --- | --- |
| 1 nM | 5 nM | 350 nM | CC[C@H](C)[C@H](NC(=O)[C@H](Cc1ccccc1)NC(=O)[C@H](CCC(=O)O)NC(=O)[C@H](CCCCN)NC(=O)[C@H](C)NC(=O)[C@H](C)NC(=O)[C@H](CCC(N)=O)NC(=O)CNC(=O)[C@H](CCC(=O)O)NC(=O)[C@H](CC(C)C)NC(=O)[C@H](Cc1ccc(O)cc1)NC(=O)[C@H](CO)NC(=O)[C@H](CO)NC(=O)[C@@H](NC(=O)[C@H](CC(=O)O)NC(=O)[C@H](CO)NC(=O)[C@@H](NC(=O)[C@H](Cc1ccccc1)NC(=O)[C@@H](NC(=O)CNC(=O)[C@H](CCC(=O)O)NC(=O)[C@H](C)NC(=O)[C@H](Cc1c[nH]cn1)NC(=O)[C@H](Cc1c[nH]cn1)NC(=O)[C@H](Cc1c[nH]cn1)NC(=O)[C@@H](N)CCSC)[C@@H](C)O)[C@@H](C)O)C(C)C)C(=O)N[C@@H](C)C(=O)N[C@@H](Cc1c[nH]c2ccccc12)C(=O)N[C@@H](CC(C)C)C(=O)N[C@H](C(=O)N[C@@H](CCCCN)C(=O)NCC(=O)N[C@@H](CCCNC(=N)N)C(=O)O)C(C)C [MHH-GLP1, MHH HAEGTFTSDVSSYLEGQAAKEFIAWLVKGR] |  |
| 0.5 nM | 3 nM | 100 nM | CC[C@H](C)[C@H](NC(=O)[C@H](Cc1ccccc1)NC(=O)[C@H](CCC(=O)O)NC(=O)[C@H](CCCCN)NC(=O)[C@H](C)NC(=O)[C@H](C)NC(=O)[C@H](CCC(N)=O)NC(=O)CNC(=O)[C@H](CCC(=O)O)NC(=O)[C@H](CC(C)C)NC(=O)[C@H](Cc1ccc(O)cc1)NC(=O)[C@H](CO)NC(=O)[C@H](CO)NC(=O)[C@@H](NC(=O)[C@H](CC(=O)O)NC(=O)[C@H](CO)NC(=O)[C@@H](NC(=O)[C@H](Cc1ccccc1)NC(=O)[C@@H](NC(=O)CNC(=O)[C@H](CCC(=O)O)NC(=O)[C@H](C)NC(=O)[C@H](Cc1c[nH]cn1)NC(=O)[C@H](CCSC)NC(=O)[C@@H](N)CCSC)[C@@H](C)O)[C@@H](C)O)C(C)C)C(=O)N[C@@H](C)C(=O)N[C@@H](Cc1c[nH]c2ccccc12)C(=O)N[C@@H](CC(C)C)C(=O)N[C@H](C(=O)N[C@@H](CCCCN)C(=O)NCC(=O)N[C@@H](CCCNC(=N)N)C(=O)O)C(C)C [MM-GLP1, MM HAEGTFTSDVSSYLEGQAAKEFIAWLVKGR] |  |
| 0.4 nM | 2 nM | 53 nM | CC[C@H](C)[C@H](NC(=O)[C@H](Cc1ccccc1)NC(=O)[C@H](CCC(=O)O)NC(=O)[C@H](CCCCN)NC(=O)[C@H](C)NC(=O)[C@H](C)NC(=O)[C@H](CCC(N)=O)NC(=O)CNC(=O)[C@H](CCC(=O)O)NC(=O)[C@H](CC(C)C)NC(=O)[C@H](Cc1ccc(O)cc1)NC(=O)[C@H](CO)NC(=O)[C@H](CO)NC(=O)[C@@H](NC(=O)[C@H](CC(=O)O)NC(=O)[C@H](CO)NC(=O)[C@@H](NC(=O)[C@H](Cc1ccccc1)NC(=O)[C@@H](NC(=O)CNC(=O)[C@H](CCC(=O)O)NC(=O)[C@H](C)NC(=O)[C@H](Cc1c[nH]cn1)NC(=O)[C@@H](N)CO)[C@@H](C)O)[C@@H](C)O)C(C)C)C(=O)N[C@@H](C)C(=O)N[C@@H](Cc1c[nH]c2ccccc12)C(=O)N[C@@H](CC(C)C)C(=O)N[C@H](C(=O)N[C@@H](CCCCN)C(=O)NCC(=O)N[C@@H](CCCNC(=N)N)C(=O)O)C(C)C [S-GLP-1, S HAEGTFTSDVSSYLEGQAAKEFIAWLVKGR] |  |
| 1 nM | 9 nM |  | cgGLP-9: SEQ ID NO: 6 + 20k PEG dimer (HGEGTFTSDVSSYLEGCAAKEFIAWLVKGRG; not fully specified (residue 17); also: 20k PEG dimer) | IC50 (human GLP-1 receptor [2]; membranes of CHOK1 cells expressing human GLP-1 receptor, 0.2 nM 125I-GLP-1): > 1000 nM |
